Drawing on ChEMBL document CHEMBL4616649, “Genomics-Metabolomics Profiling Disclosed Marine Vibrio spartinae 3.6 as a Producer of a New Branched Side Chain Prodigiosin” (2020), this text covers MIC and MIC50 for 6 compounds.

What all share (type): functional
In test [1] the test system is Stenotrophomonas maltophilia. Description: Antibacterial activity against Stenotrophomonas maltophilia ATCC 700475 assessed as reduction in microbial growth after 20 hrs by microdilution method. The settings on record: ATCC 700475, 20 h. (In general: Broth dilution looks for growth in wells or tubes with falling amounts of substance.)
The test system of test [2] is Staphylococcus aureus. Description: Antibacterial activity against Staphylococcus aureus 6538P assessed as reduction in microbial growth after 20 hrs by microdilution method.
Test [3] has as its system Staphylococcus epidermidis. Description: Antibacterial activity against Staphylococcus epidermidis ATCC 35984 assessed as reduction in microbial growth after 20 hrs by microdilution method. The following applies: ATCC 35984, 20 h.
Test [4] concerns Staphylococcus aureus. Description: Antibacterial activity against Staphylococcus aureus ATCC 23235 assessed as reduction in microbial growth after 20 hrs by microdilution method. The settings on record: ATCC 23235, 20 h.
For test [5], the system named is Stenotrophomonas maltophilia. Description: Antibacterial activity against Stenotrophomonas maltophilia ATCC 13636 assessed as reduction in microbial growth after 20 hrs by microdilution method. The settings on record: ATCC 13636, 20 h.
Test [6] concerns Staphylococcus aureus. Description: Antibacterial activity against Staphylococcus aureus ATCC 29213 assessed as reduction in microbial growth after 20 hrs by microdilution method. The settings on record: ATCC 29213, 20 h.
For another test, the system named is Listeria monocytogenes. Description: Antibacterial activity against Listeria monocytogenes MB677 assessed as reduction in microbial growth after 20 hrs by microdilution method. The following applies: MB677, 20 h.
For test [7], the system named is Stenotrophomonas maltophilia. Description: Antibacterial activity against Stenotrophomonas maltophilia ATCC 13637 assessed as reduction in microbial growth after 20 hrs by microdilution method. The settings on record: ATCC 13637, 20 h.

The term MIC denotes the lowest concentration that inhibits growth of the organism. As usually defined, the MIC50 is an inhibitory concentration at the 50% level, which refers to growth in some studies and to a panel of isolates in others. Regarding `COc1cc(-c2ccc[nH]2)[nH]c1/C=C1/C=C(CCCCC(C)C)C(C)=N1`, the MIC is 27 µg/mL in test [1]; 21 µg/mL with Staphylococcus aureus [2]; 27 µg/mL in test [3]; 21 µg/mL in the test on Staphylococcus aureus [4]; 27 µg/mL in test [5]; 27 µg/mL with Staphylococcus aureus [6]. In addition, the minimal inhibitory concentration (MIC) with Listeria monocytogenes turned out to be 21 µg/mL; in test [7], 27 µg/mL. Besides, the MIC50 in test [1] stood at 4 µg/mL; in the test on Staphylococcus aureus [2], 0.2 µg/mL; in test [3], 2.7 µg/mL; in the test on Staphylococcus aureus [4], 0.5 µg/mL; in test [5] it was 3.3 µg/mL; in the test with Staphylococcus aureus [6], 0.5 µg/mL. Moreover, the MIC50 (with Listeria monocytogenes; in test [7]) was 3.3 µg/mL throughout.

`COc1cc(-c2ccc[nH]2)[nH]c1/C=C1\N=C(C)C2=C1C(C)CCC2` (stereo not drawn): the MIC is 5.3 µg/mL in test [1]; 3.3 µg/mL with Staphylococcus aureus [2]; 3.3 µg/mL in test [3]; 3.3 µg/mL with Staphylococcus aureus [4]; 3.3 µg/mL in test [5]; 4 µg/mL with Staphylococcus aureus [6]. The MIC with Listeria monocytogenes came to 4 µg/mL; in test [7], 3.3 µg/mL. For the same compound, the MIC50 was 1.7 µg/mL in test [1]; 0.05 µg/mL with Staphylococcus aureus [2]; 0.5 µg/mL in test [3]; 0.08 µg/mL in the test on Staphylococcus aureus [4]; 1 µg/mL in test [5]; 0.06 µg/mL with Staphylococcus aureus [6]. The MIC50 with Listeria monocytogenes is 0.4 µg/mL; in test [7], 2 µg/mL.

Regarding `CN[C@H](CC(C)C)C(=O)N[C@H]1C(=O)N[C@@H](CC(N)=O)C(=O)N[C@H]2C(=O)N[C@H]3C(=O)N[C@H](C(=O)N[C@H](C(=O)O)c4cc(O)cc(O)c4-c4cc3ccc4O)[C@H](O)c3ccc(c(Cl)c3)Oc3cc2cc(c3O[C@@H]2O[C@H](CO)[C@@H](O)[C@H](O)[C@H]2O[C@H]2C[C@](C)(N)[C@H](O)[C@H](C)O2)Oc2ccc(cc2Cl)[C@H]1O` [VANCOMYCIN], the minimal inhibitory concentration (MIC) with Staphylococcus aureus [2] came to 1.7 µg/mL.

As to `CC1(C)S[C@@H]2[C@H](NC(=O)[C@H](N)c3ccccc3)C(=O)N2[C@H]1C(=O)O` [AMPICILLIN], the MIC with Listeria monocytogenes came out at 0.8 µg/mL.

For the compound `O=C(N[C@H](CO)[C@H](O)c1ccc([N+](=O)[O-])cc1)C(Cl)Cl` [CHLORAMPHENICOL], the MIC in test [1] came out at 4 µg/mL; in test [5], 4 µg/mL; in test [7] it was 3.3 µg/mL.

Regarding `CCCCCC1=C/C(=C\c2[nH]c(-c3ccc[nH]3)cc2OC)N=C1C`, the minimal inhibitory concentration (MIC) stood at 2.7 µg/mL in test [1]; 1.7 µg/mL with Staphylococcus aureus [2]; 2 µg/mL in test [3]; 1.3 µg/mL in the test with Staphylococcus aureus [4]; 1.7 µg/mL in test [5]; 3.3 µg/mL in the test with Staphylococcus aureus [6]. Besides, the MIC (with Listeria monocytogenes; in test [7]) was 1.7 µg/mL in each case. Further, the MIC50 stood at 0.5 µg/mL in test [1]; 0.04 µg/mL in the test on Staphylococcus aureus [2]; 0.33 µg/mL in test [3]; 0.06 µg/mL with Staphylococcus aureus [4]; 0.13 µg/mL in test [5]; 0.05 µg/mL with Staphylococcus aureus [6]. Besides, the MIC50 with Listeria monocytogenes is 0.16 µg/mL; in test [7] it was 0.66 µg/mL.
